Measurements: PubChem BioAssay AID1626 (SRMLSC, 2009)

System: M. tuberculosis H37Rv growth inhibition
Assay: M. tuberculosis H37Rv growth inhibitors, H37Rv strain (AID 1626)
Conditions: for IC90: measured here: IC90 against H37Rv; for CC50: measured here: Vero cell cytotoxicity

Row | SMILES | IC50 [µM] | IC90 [µM] | CC50 [µM]
1 | Cc1ccc(OCCCc2c(C)n[nH]c2C)cc1 | 16.8 | > 100 | –
2 | O=C(NCCN1CCOCC1)c1ccc([N+](=O)[O-])cc1[N+](=O)[O-] | 2.11 | 3.4 | –
3 | Cc1ccc(-n2nnnc2Sc2nc([N+](=O)[O-])nn2C)cc1C | 7.23 | 13.2 | 37.6
4 | Cc1ccc(NC(=O)c2ccc([N+](=O)[O-])o2)cc1C | < 0.195 | 8.63 | > 40
5 | Cc1ccc(-c2nc(C(Cl)Cl)c3ccccc3n2)cc1 | 4.4 | 12.1 | 0.923
6 | Cc1nnc(NC(=O)c2ccc3ccccc3c2)o1 | 0.719 | 1.46 | > 40
7 | CCOC(=O)CSc1nnc(-c2ccc(OC)cc2OC)o1 | 1.24 | 2.38 | –
8 | Cc1ccc(C)c(-c2cc(C(=O)Nc3sc(C)c(C)c3C(N)=O)c3ccccc3n2)c1 | – | – | > 40
9 | O=C(Nc1nccs1)c1cc2c(s1)CCCCC2 | 5.64 | 25 | > 40
10 | Cc1ccccc1OCc1nc(-c2ccc(NC(=O)c3cccs3)cc2)no1 | 4.48 | 46.6 | –
11 | COc1cc(CNCCc2ccccc2)cc(Cl)c1OCc1ccccc1 | 8.64 | 11 | 27.8
12 | CN1/C(=C\C(=O)c2cccs2)Sc2ccccc21 | 5.65 | 13.6 | > 40
13 | COc1cccc(C(=O)Nc2nc(-c3ccccc3)c(-c3ccccc3)o2)c1 | < 0.195 | 6.62 | > 40
14 | O=c1[nH][nH]c(-c2ccccc2O)c1C(C[N+](=O)[O-])c1ccc(Cl)cc1Cl (stereo not given) | 10.5 | 15 | > 40
15 | COC(=O)CSc1nc(-c2ccccc2)c2c(c1C#N)CCCC2 | 5.24 | 8.33 | –
16 | CCc1ccc(/C=c2\s/c(=C\C(=O)C(C)(C)C)[nH]c2=O)cc1 | 2.55 | 3.56 | > 40
17 | O=c1oc2ccc3ccccc3c2cc1-c1nc2ccccc2o1 | 2.79 | 7.33 | –
18 | Cc1cc(C)cc(N=c2c([N+](=O)[O-])nn(-c3cccc(Cl)c3)n2O)c1 | 4.89 | 9.8 | > 40
19 | CCOc1ccc(NC(=O)CCn2cccc2)cc1 | – | > 100 | –
20 | Nc1c(C(=O)NC2CCCCC2)nsc1C(=O)OCC(=O)NC1CCCCC1 | 2.04 | > 100 | > 40
21 | O=C(Nc1cc(C(F)(F)F)cc(C(F)(F)F)c1)Nc1cnn(-c2ccc([N+](=O)[O-])cc2)c1C(F)(F)F | 0.676 | 0.938 | 2.76
22 | c1ccc(N2CCN(c3nc(NCc4ccco4)c4ccccc4n3)CC2)cc1 | 9.66 | 14.4 | > 40

Row | SMILES | IC50 [µM] | IC90 [µM] | CC50 [µM]
23 | CCOC(=O)c1cnc(-n2nc(C)cc2C)nc1NC1CCCC1 | 0.755 | 0.859 | 15.2
24 | Cc1ccc(-c2nn(-c3ccccc3)cc2C=O)o1 | – | – | > 40
25 | O=C(OCC#CCSc1nc2ccccc2o1)c1ccco1 | 4.27 | 12.4 | –
26 | c1coc(CNc2nc(N3CCCCC3)nc3ccccc23)c1 | 1.49 | 1.69 | > 40
27 | O=C(Oc1ccc(-c2cnc3ccccc3n2)cc1)c1ccc(Cl)c([N+](=O)[O-])c1 | 5.25 | 23.4 | –
28 | Cc1ccc(C(=O)/C=C/c2ccc(-c3ccc(C)cc3)o2)cc1 | – | – | 21.9
29 | Cc1c(CNC(=O)c2cnn3c2NC(c2ccc(Br)cc2)CC3C(F)(F)F)cnn1C (stereo not given) | 4.09 | 6.49 | –
30 | Brc1c(CSc2nncc3ccccc23)nc2ccccn12 | 5.58 | 16.3 | > 40
31 | O=C(Nc1nc2ccccc2s1)C1c2ccccc2Oc2ccccc21 | – | > 100 | > 40
32 | Cc1nc(NC(=O)c2ccccc2)sc1Cc1ccc2c(c1)OCO2 | 60.5 | > 100 | > 40
33 | O=C(Nc1nnc(-c2cccs2)o1)c1cccc(Oc2ccccc2)c1 | < 0.195 | 2.67 | 34
34 | Nc1ccc(OCc2ccco2)cc1 | 5.19 | > 100 | –
35 | Cc1nnc(NC(=O)c2ccc3ccccc3n2)s1 | 42.5 | > 100 | > 40
36 | COc1ccc(NC(=O)CCCSc2ccccc2)cc1 | – | > 100 | –
37 | Cc1cccc(-c2nsc(SCC(=O)NCC3CCCO3)n2)c1 (stereo not given) | 1.19 | 4.2 | –
38 | O=C1C(=O)c2ccc(-c3ccccc3)cc2-c2ccccc21 | 1.47 | 1.66 | 3.09
39 | O=C(COC(=O)/C=C/c1nc2ccccc2s1)Nc1cccc(Cl)c1Cl | – | > 100 | –
40 | CCCCCn1c(N2CCC(Cc3ccccc3)CC2)nc2c1c(=O)[nH]c(=O)n2C | 11.8 | 13.4 | 24.1
41 | Oc1ccc2cc(Br)ccc2c1CN1CCCC1 | 22.2 | > 100 | > 40
42 | CSc1cccc(NC(=O)CSc2nnc(C)s2)c1 | 97.1 | > 100 | –
43 | O=C(C[n+]1cc(-c2ccc(Cl)cc2)n2c1CCC2)N1c2ccccc2Sc2ccccc21 | 12.1 | 13.7 | –
44 | CCCc1nc2sc3ccccc3c(=O)c2c(=O)n1Cc1ccc(OC)cc1 | – | > 100 | > 40

Row | SMILES | IC50 [µM] | IC90 [µM] | CC50 [µM]
45 | COc1ccc(-c2nn(-c3ccccc3)cc2C(=O)Nc2nccs2)cc1 | – | > 100 | > 40
46 | COc1ccc2cc(C(=O)C3CCCN(Cc4cccc(C)n4)C3)ccc2c1 (stereo not given) | 7 | 14.7 | > 40
47 | COc1ccc(N2C(=O)C(F)(F)C2c2ccccc2F)cc1 (stereo not given) | 5.79 | 12.1 | –
48 | CCN1CCN(c2cc(-c3ccccc3)nc3cc(-c4cccc(F)c4)nn23)CC1 | 8.07 | 12.9 | 39.2
49 | O=c1oc(/C=C/c2ccccc2)nc2ccccc12 | 12.7 | > 100 | –
50 | Cc1ccc(C)c(-c2csc(NC(=O)c3cnccn3)n2)c1 | 2.6 | > 100 | > 40
51 | Cc1nc(-c2ccccn2)nc(SCC(=O)c2ccccc2)c1Cl | 3.68 | 6.49 | > 40
52 | O=C(/C=C/c1ccc2c(c1)OCO2)c1c(O)n(CCc2ccccc2)c(=O)[nH]c1=O | 6.87 | 9.99 | 27.4
53 | O=C1N=C(N2CCN(c3cccc4ccccc34)CC2)S/C1=C/c1cccs1 | – | – | > 40
54 | CCCCCC(=O)Nc1ccc2ccccc2c1 | < 0.195 | > 100 | –
55 | CCOC(=O)c1ccc(N=Cc2nc3ccccc3n2C)cc1 | 12.7 | > 100 | –
56 | O=C(OCC#CCSc1nnc(-c2ccc([N+](=O)[O-])cc2)o1)c1cccs1 | < 0.195 | 1.3 | –
57 | O=C(OCC#CCSc1nnc(-c2ccc(Br)cc2)o1)c1cccs1 | < 0.195 | 2.44 | –
58 | COc1ccc(OC)c(C2C3=C(N=c4s/c(=C\c5cccc(O)c5)c(=O)n42)c2ccccc2CC3)c1 (stereo not given) | 11.1 | > 100 | 19.9
59 | Cc1ccc(-c2[nH]nc(N)c2N=Nc2ccccc2C)cc1 | 5.45 | 8.36 | > 40
60 | CC(=O)C1=C(C)NC(SCC(=O)c2ccc(F)cc2)=C(C#N)C1c1ccco1 (stereo not given) | 11.7 | 21.1 | > 40
61 | CCOC(=O)c1ccc(NC(=O)COc2ccccc2CNCCc2ccccc2)cc1 | 4.77 | 6.88 | 25.2
62 | c1ccc(-c2nc(N3CCOCC3)c3ccccc3n2)nc1 | 5.22 | 14.5 | > 40
63 | O=C(O)c1cn(-c2ccc(N3CCCC3)c(F)c2)c2c(F)c(F)c(F)cc2c1=O | 4.59 | 9.57 | > 40
64 | CC(=O)Nc1ccc(Nc2cc(C)nc3c(-c4ccccc4)c(C)nn23)cc1 | – | > 100 | > 40
65 | O=C1CCCC(O)=C1C=Nc1ccc2c(c1)oc1ccccc12 | < 0.195 | > 100 | –
66 | CCC(=O)Nc1nnc(-c2ccc(OC)cc2)o1 | 6.08 | > 100 | –

Row | SMILES | IC50 [µM] | IC90 [µM] | CC50 [µM]
67 | O=C1Nc2ccccc2/C1=C/C(=O)c1cccs1 | 4.39 | 26.1 | 33.7
68 | CC(NC(=O)Nc1ccc(Br)cc1)C(C)(C)C (stereo not given) | 0.42 | > 100 | –
69 | Oc1ccc(Cl)cc1N=Cc1sc2ccccc2c1Cl | 6.53 | 66.7 | > 40
70 | C=CCOc1ccc(C=Nc2ccc(OC)cc2)c(O)c1 | – | > 100 | –
71 | O=C(NC1=NCCS1)c1ccc(-c2ccc(Cl)cc2)o1 | 28.4 | > 100 | –
72 | COCCN=C1Sc2nc3ccc(C)cc3cc2CN1Cc1cccs1 | 10.6 | 13.8 | –
73 | Cc1ccc(-c2ccccc2NC(=O)CCl)o1 | 18.6 | > 100 | > 40
74 | Cc1ccc(-c2ccc(C3C(C#N)=C(N)Oc4n[nH]c(C)c43)o2)cc1 (stereo not given) | 2.37 | > 100 | > 40
75 | Cc1cnc(NC(=O)c2cc3c(C)nn(-c4ccccc4)c3s2)s1 | 61 | > 100 | > 40
76 | COC(=O)CSc1nnc(-c2sc3ccccc3c2Cl)o1 | 8.67 | 36.2 | –
77 | CC[C@H](CO)NCCN[C@H](CC)CO | 0.778 | > 100 | –
78 | O=C(Nc1ccc(-c2csnn2)cc1)C1CC1 | – | > 100 | –
79 | CCN(CCCCN1C(=O)c2ccccc2C1=O)c1ccc2c(c1)C(=O)N(C)C2=O | 12 | > 100 | –
80 | Cc1cc(/C=N/n2cnnc2)c(C)n1-c1ccc(OCc2ccc(Cl)cc2Cl)cc1 | 8.02 | 15 | 21.6
81 | O=C(Nc1ccc(Oc2ccccc2)cc1)C1CCCO1 (stereo not given) | 34.2 | > 100 | –
82 | Cc1cc(OCCCCCn2ccnc2)cc(C)c1Cl | 4.17 | 5.19 | 24.6
83 | COc1ccc(NS(=O)(=O)c2ccc3nc(COc4cccc5ccccc45)[nH]c3c2)cc1 | 9.84 | 15 | 29.6
84 | O=C(NC1CCCCCCC1)c1ccccc1-c1ccccc1 | 57.1 | > 100 | –
85 | Nc1ccccc1Nc1ccccc1 | < 0.195 | 0.973 | –
86 | CC1(C)CC(=O)C2=C(C1)OC(N)=C([N+](=O)[O-])C2c1ccc(C#N)s1 (stereo not given) | 10.9 | 15.2 | –
